SMILES strings stand for the structures. Bounds are passed on as bounds.

This assay addresses T1, hTRPC5 (Homo sapiens, UniProt Q9UL62).
T1 construct: expressed in transfected cells; host or cells: HEK293 TREx cells with inducible TRPC5 expression
T1 sequence (Q9UL62 1-973): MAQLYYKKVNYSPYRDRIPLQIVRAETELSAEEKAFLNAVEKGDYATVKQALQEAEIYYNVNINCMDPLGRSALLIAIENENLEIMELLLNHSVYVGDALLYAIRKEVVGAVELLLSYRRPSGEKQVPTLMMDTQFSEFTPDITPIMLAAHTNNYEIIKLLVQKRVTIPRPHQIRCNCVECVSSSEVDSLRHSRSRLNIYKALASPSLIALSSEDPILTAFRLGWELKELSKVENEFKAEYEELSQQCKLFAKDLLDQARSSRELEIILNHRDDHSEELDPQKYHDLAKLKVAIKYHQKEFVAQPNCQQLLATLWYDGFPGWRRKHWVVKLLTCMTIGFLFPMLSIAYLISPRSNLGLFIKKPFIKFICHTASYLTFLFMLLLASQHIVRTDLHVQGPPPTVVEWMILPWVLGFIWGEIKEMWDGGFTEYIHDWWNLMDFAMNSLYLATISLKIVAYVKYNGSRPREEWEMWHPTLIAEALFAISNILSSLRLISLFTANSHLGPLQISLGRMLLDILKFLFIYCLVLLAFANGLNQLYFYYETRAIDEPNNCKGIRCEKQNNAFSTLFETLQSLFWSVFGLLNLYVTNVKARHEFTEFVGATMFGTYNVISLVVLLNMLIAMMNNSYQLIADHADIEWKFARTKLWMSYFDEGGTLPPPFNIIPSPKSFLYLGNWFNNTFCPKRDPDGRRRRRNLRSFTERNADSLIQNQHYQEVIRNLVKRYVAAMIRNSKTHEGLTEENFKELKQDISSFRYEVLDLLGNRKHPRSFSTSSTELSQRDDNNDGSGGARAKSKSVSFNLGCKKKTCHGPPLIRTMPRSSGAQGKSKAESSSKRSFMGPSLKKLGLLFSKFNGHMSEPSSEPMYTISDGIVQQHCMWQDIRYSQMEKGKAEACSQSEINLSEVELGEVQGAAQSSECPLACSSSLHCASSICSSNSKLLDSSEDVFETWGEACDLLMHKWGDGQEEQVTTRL
Nature of the assay: Whole-cell patch clamp, block of LaCl3-activated TRPC5 inward current. Type of assay: cell-based. Conditions: TRPC5-expressing HEK293 TREx cells, 80 μM LaCl3, inward current, IC50 estimated from 5 μM and 500 nM, read-out: hTRPC5 Patch La3+ Inwd (nM) (All Batches). The method, then:
In certain embodiments, exemplary compounds of Formula I and Formula II include the compounds described in Table 1 and in the Examples. A compound described herein may be tested for its ability to block both inward and outward currents through the TRPC5 channel, e.g., by an assay as described in Example 1. For example, IC50 of a compound of Formula I or Formula II was estimated by testing the compound at 5 μM and 500 nM. […] IC50 for a compound of Formula I or Formula II between 500 nM and 5 μM was similarly estimated. As shown, “A” refers to an IC50<100 nM. “B” refers to an IC50 between 100 nM and 500 nM. “C” refers to an IC50 between 500 nM and 1000 nM. “D” refers to an IC50 between 1 μM and 2 μM. “E” refers to an IC50 between 2 μM and 10 μM. “F” refers to […]. “ND” refers to compounds wherein the IC50 was not determined.
Patch clamp experiments permit the detection of currents through the TRPC5 channel in the cell line described above. In normal whole-cell patch clamp recordings, a glass electrode is brought into contact with a single cell and a high-resistance (gigaohm) seal is established with the cell membrane. The membrane is then ruptured to achieve the whole-cell configuration, permitting control of the voltage of the cell membrane and measurement of currents flowing across the membrane using the amplifier attached to the electrode and resulting in the replacement of cytoplasm with the pipette solution. A perfusion system permits control of the extracellular solution, including the addition of blockers and activators of the current. The current can be activated by including 1.4 μM free Ca^2+ in the pipette (intracellular) solution, and 80 μM LaCl3 in the extracellular solution.
TRPC5 cells were induced 20-48 hours, removed from growth plates, and replated at low density (to attain good single-cell physical separation) on glass coverslips for measurement. In some cases, cells were grown in low density overnight on glass coverslips. Patch clamp recordings were made in the whole-cell mode with a holding potential of −40 mV. Every 5 seconds, a voltage ramp was applied from −120 to +100 mV, 400 ms in duration. Currents elicited were quantified at −80 mV and +80 mV. The internal solution consisted of 140 mM cesium aspartate, 10 mM HEDTA, 2 mM CaCl2, 2.27 mM MgCl2 and 10 mM HEPES, pH 7.2, with 1,400 nM calculated free Ca^2+. The external solution consisted of 150 mM NaCl, 4.5 mM KCl, 1 mM MgCl2, 2 mM CaCl2, 10 mM HEPES, 10 mM glucose, 1 mM EGTA, pH 7.4. Upon addition of LaCl3, TRPC5 current was induced only in TRPC5-expressing cells and not in parental HEK293 TREx cells. Removal of the LaCl3 stimulus causes most of the current to go away. Potential blockers were tested for ability to block both inward and outward currents in the continued presence of LaCl3.
IC50 of a compound of Formula I or Formula II was estimated by testing the compound at 5 μM and 500 nM. […] IC50 for a compound of Formula I or Formula II between 500 nM and 5 μM was similarly estimated.
For the compound `CCC(=O)CSc1nc2c(c(=O)n(C)c(=O)n2C)n1Cc1cccc(Br)c1` [Compound 1, 7-(3-bromobenzyl)-1,3-dimethyl-8-(2-oxobutylthio)-1H-purine-2,6(3H,7H)-dione], the IC50 is 500 to 1000 nM.

Consider `Cn1c(=O)c2c(nc(SC(C)(C)C(=O)OC(C)(C)C)n2Cc2cccc(Br)c2)n(C)c1=O` [Compound 3, Tert-butyl 2-(7-(3-bromobenzyl)-1,3-dimethyl-2,6-dioxo-2,3,6,7-tetrahydro-1H-purin-8-ylthio)-2-methylpropanoate], for which the IC50 was 100 to 500 nM.

As for `CC(O)CSc1nc2c(c(=O)n(C)c(=O)n2C)n1Cc1cccc(Br)c1` (stereo not drawn) [Compound 5], the IC50 is 2000 to 10000 nM.

Take `CCOCCSc1nc2c(c(=O)n(C)c(=O)n2C)n1Cc1cccc(Br)c1` [Compound 6, 7-(3-bromobenzyl)-8-(2-ethoxyethylthio)-1,3-dimethyl-1H-purine-2,6(3H,7H)-dione]: the IC50 is 100 to 500 nM.

As to `Cn1c(=O)c2c(nc(SCC#N)n2Cc2cccc(Br)c2)n(C)c1=O` [Compound 7], the IC50 is 2000 to 10000 nM.

In the case of `Cn1c(=O)c2c(nc(SCc3ncc[nH]3)n2Cc2cccc(Br)c2)n(C)c1=O` [Compound 8], the IC50 was 2000 to 10000 nM.

On to `CCOC(=O)C(C)(C)Sc1nc2c(c(=O)n(C)c(=O)n2C)n1Cc1cccc(Br)c1` [Compound 9, Ethyl 2-(7-(3-bromobenzyl)-1,3-dimethyl-2,6-dioxo-2,3,6,7-tetrahydro-1H-purin-8-ylthio)-2-methylpropanoate], for which the IC50 was < 100 nM.

With `Cn1c(=O)c2c(nc(SCc3cccnc3)n2Cc2cccc(Br)c2)n(C)c1=O` [Compound 10, 7-(3-bromobenzyl)-1,3-dimethyl-8-(pyridin-3-ylmethylthio)-1H-purine-2,6(3H,7H)-dione], the IC50 is 2000 to 10000 nM.

With `Cn1c(=O)c2c(nc(SCc3ccncc3)n2Cc2cccc(Br)c2)n(C)c1=O` [Compound 11, 7-(3-bromobenzyl)-1,3-dimethyl-8-(pyridin-4-ylmethylthio)-1H-purine-2,6(3H,7H)-dione], the IC50 is 2000 to 10000 nM.

In the case of `Cn1c(=O)c2c(nc(SCc3ccccn3)n2Cc2cccc(Br)c2)n(C)c1=O` [Compound 12, 7-(3-bromobenzyl)-1,3-dimethyl-8-(pyridin-2-ylmethylthio)-1H-purine-2,6(3H,7H)-dione], the IC50 was 500 to 1000 nM.

In the case of `CCCC(=O)CSc1nc2c(c(=O)n(C)c(=O)n2C)n1Cc1cccc(Br)c1` [Compound 13, 7-(3-bromobenzyl)-1,3-dimethyl-8-(2-oxopentylthio)-1H-purine-2,6(3H,7H)-dione], the IC50 is < 100 nM.

On to `CCOCCS(=O)(=O)c1nc2c(c(=O)n(C)c(=O)n2C)n1Cc1cccc(Br)c1` [Compound 14, 7-(3-bromobenzyl)-8-(2-ethoxyethylsulfonyl)-1,3-dimethyl-1H-purine-2,6(3H,7H)-dione], for which the IC50 is 1000 to 2000 nM.

On to `CCOCC[S+]([O-])c1nc2c(c(=O)n(C)c(=O)n2C)n1Cc1cccc(Br)c1` (stereo not drawn) [Compound 15], for which the IC50 was 2000 to 10000 nM.

Consider `CCOCCSc1nc2c(c(=O)n(C)c(=O)n2C)n1Cc1cccc(Cl)c1` [Compound 16], for which the IC50 was 2000 to 10000 nM.

For the compound `COCCOCCSc1nc2c(c(=O)n(C)c(=O)n2C)n1Cc1cccc(Br)c1` [Compound 17, 7-(3-bromobenzyl)-8-(2-(2-methoxyethoxy)ethylthio)-1,3-dimethyl-1H-purine-2,6(3H,7H)-dione], the IC50 is 100 to 500 nM.

`CCOCCOc1nc2c(c(=O)n(C)c(=O)n2C)n1Cc1cccc(Br)c1` [Compound 18, 7-(3-bromobenzyl)-8-(2-ethoxyethoxy)-1,3-dimethyl-1H-purine-2,6(3H,7H)-dione]: the IC50 is 1000 to 2000 nM.

Regarding `COCCCSc1nc2c(c(=O)n(C)c(=O)n2C)n1Cc1cccc(Br)c1` [Compound 19, 7-(3-bromobenzyl)-8-(3-methoxypropylthio)-1,3-dimethyl-1H-purine-2,6(3H,7H)-dione], the IC50 is 100 to 500 nM.

On to `CCc1coc(CSc2nc3c(c(=O)n(C)c(=O)n3C)n2Cc2cccc(Br)c2)n1` [Compound 20, 7-(3-bromobenzyl)-8-((4-ethyloxazol-2-yl)methylthio)-1,3-dimethyl-1H-purine-2,6(3H,7H)-dione], for which the IC50 is 100 to 500 nM.

As for `CCOCCNc1nc2c(c(=O)n(C)c(=O)n2C)n1Cc1cccc(Br)c1` [Compound 21], the IC50 is 2000 to 10000 nM.

On to `CN(C)CCCSc1nc2c(c(=O)n(C)c(=O)n2C)n1Cc1cccc(Br)c1` [Compound 22], for which the IC50 was 2000 to 10000 nM.

Regarding `CCc1cnc(CSc2nc3c(c(=O)n(C)c(=O)n3C)n2Cc2cccc(Br)c2)o1` [Compound 23], the IC50 is 100 to 500 nM.

For `Cc1nc2c(c(=O)n(C)c(=O)n2C)n1Cc1cccc(Br)c1` [Compound 24, 7-(3-bromobenzyl)-1,3,8-trimethyl-1H-purine-2,6(3H,7H)-dione], the IC50 is 2000 to 10000 nM.

For `Cn1c(=O)c2c(nc(CC(=O)O)n2Cc2cccc(Br)c2)n(C)c1=O` [Compound 25, 2-(7-(3-bromobenzyl)-1,3-dimethyl-2,6-dioxo-2,3,6,7-tetrahydro-1H-purin-8-yl)acetic acid], the IC50 was 2000 to 10000 nM.

For the compound `CCCOC(=O)Cc1nc2c(c(=O)n(C)c(=O)n2C)n1Cc1cccc(Br)c1` [Compound 26, Propyl-2-(7-(3-bromobenzyl)-1,3-dimethyl-2,6-dioxo-2,3,6,7-tetrahydro-1H-purin-8-yl)-acetate], the IC50 is 2000 to 10000 nM.

For `CCCNC(=O)Cc1nc2c(c(=O)n(C)c(=O)n2C)n1Cc1cccc(Br)c1` [Compound 27, 2-(7-(3-Bromobenzyl)-1,3-dimethyl-2,6-dioxo-2,3,6,7-tetrahydro-1H-purin-8-yl)-N-propylacetamide], the IC50 is 2000 to 10000 nM.

On to `CCOc1nc2c(c(=O)n(C)c(=O)n2C)n1Cc1cccc(Br)c1` [Compound 28, 7-(3-bromobenzyl)-8-ethoxy-1,3-dimethyl-1H-purine-2,6(3H,7H)-dione], for which the IC50 is 2000 to 10000 nM.

Turning to `CN1CCN(C(=O)Cc2nc3c(c(=O)n(C)c(=O)n3C)n2Cc2cccc(Br)c2)CC1` [Compound 29], the IC50 is 2000 to 10000 nM.

On to `C[C@H]1CCCN1c1ncc(-c2cccc(NC(=O)Cc3nc4c(c(=O)n(C)c(=O)n4C)n3Cc3cccc(Br)c3)n2)cn1` [Compound 30], for which the IC50 is 2000 to 10000 nM.

As to `Cn1c(=O)c2c(nc(/C=C/c3ccccc3)n2Cc2cccc(Br)c2)n(C)c1=O` [Compound 32], the IC50 was 2000 to 10000 nM.

`Cn1c(=O)c2c(nc(CCc3ccccc3)n2Cc2cccc(Br)c2)n(C)c1=O` [Compound 33, 7-(3-bromobenzyl)-1,3-dimethyl-8-phenethyl-1H-purine-2,6(3H,7H)-dione]: the IC50 is 500 to 1000 nM.

The values above are taken from patent US20160145257A1, “SUBSTITUTED XANTHINES AND METHODS OF USE THEREOF” (Hydra Biosciences, Inc., priority 2013, published 2016).
